Earlier results on two compounds are cited in US20050096391A1 (priority 2003, published 2005).

The conditions of data set [1]: pH of 7.0.
For data set [2] the following is noted: oral.
The subject of data set [3] is low-density lipoprotein (LDL)-cholesterol. Particulars: compared with atorvastatin, simvastatin, pravastatin.

Molecules are shown by their SMILES.

For the compound `CC(C)c1nc(N(C)S(C)(=O)=O)nc(-c2ccc(F)cc2)c1/C=C/[C@@H](O)C[C@@H](O)CC(=O)O` [Rosuvastatin, (E)-7-[4-(4-fluorophenyl)-6 isopropyl-2-[methyl (methyl-sulfonyl)amino]pyrimidin-5-yl](3R,5S)-3,5-dihydroxyhept-6-enoic acid], the “partition coefficient (octanol/water)” value in data set [1] was 0.13. In data set [2], the bioavailability entry is given as “approximately 20%”. In addition, in data set [3], the “reductions in low-density lipoprotein (LDL)-cholesterol” value was “greater reductions in low-density lipoprotein (LDL)-cholesterol than atorvastatin, simvastatin, and pravastatin”.

Turning to `CC(C)c1nc(N(C)S(C)(=O)=O)nc(-c2ccc(F)cc2)c1/C=C/[C@@H](O)C[C@@H](O)CC(=O)[O-].CC(C)c1nc(N(C)S(C)(=O)=O)nc(-c2ccc(F)cc2)c1/C=C/[C@@H](O)C[C@@H](O)CC(=O)[O-].[Ca+2]` [Rosuvastatin calcium], the solubility in ethanol result (ethanol) is reported as “slightly soluble”. In addition, the solubility in methanol result (methanol) is “sparingly soluble”. For the same compound, the solubility in water entry (water) is listed as “sparingly soluble”.
